The text below walks through data of patent US20230330254A1 (Regeneron Pharmaceuticals, Inc., priority 2022, published 2023).

The solubility is the dissolved amount per volume that the medium holds. A lower solubility goes with a poorly soluble substance. As usually defined, the EC50 is the midpoint of the concentration-response curve.

*1 amine or outer side, *2 acyl side, *3 side chain or, on linkers, in order; H or OH if unused. Where a SMILES comes first, the peptide text is derived from it. Side-chain parts run from the residue outwards. [ ]: non-standard residue; d: D form. The star is where a group is joined. Bip(2'-Et-4'-O(CH2)4NH2) = CCc1cc(OCCCCN[*:3])ccc1-c1ccc(C[C@H](N[*:1])C(=O)[*:2])cc1; Malonyl(2,2-Me2,histaminyl) = CC(C)(C(=O)NCCc1cnc[nH]1)C(=O)*; Nva(5-(3,5-Me2Ph)) = Cc1cc(C)cc(CCC[C@H](N)C(=O)O)c1; Ala(1H-tetrazol-5-yl) = N[C@@H](Cc1nnn[nH]1)C(=O)O; PEG8 = NCCOCCOCCOCCOCCOCCOCCOCCOCCC(=O)O; αMePhe(2-F) = C[C@](N)(Cc1ccccc1F)C(=O)O; DBCO = C1#Cc2ccccc2N(*)Cc2ccccc21; Suc = O=C(CCC(=O)[*:2])[*:1] Where only a bound is given, the exact number is not on record here.

Series [1] is described as follows: Water solubility of linker-payload. Type of series: physicochemical.
Series [2] has as its target human GLP1R (Homo sapiens, UniProt P43220). Kind of series: Luciferase reporter assay, HEK293/CRE-Luc/hGLP1R (Example 17). Details: engineered to express full-length human GLP1R, cynomolgus GLP1R; expressed in transfected cells; host or cells: HEK293/CRE-Luc. Particulars: HEK293/CRE-Luc/hGLP1R. Format: cell-based. The method in brief:
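HEK293 cells carrying a CRE-driven firefly luciferase reporter were exposed to 3-fold serial dilutions of payloads or linker-payloads (12 points, 0.2% DMSO final) for 4–6 h, then luminescence was read. EC50 came from a four-parameter logistic fit; S/N is top RLU over untreated wells, and relative potency and S/N are referenced to M2361.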
A general note: Reporter assays use an easily measured gene product as a stand-in for the process of interest.

Setting [3] is: relative to M2361 of the same experiment.

Sequence of human GLP1R (P43220 24-463): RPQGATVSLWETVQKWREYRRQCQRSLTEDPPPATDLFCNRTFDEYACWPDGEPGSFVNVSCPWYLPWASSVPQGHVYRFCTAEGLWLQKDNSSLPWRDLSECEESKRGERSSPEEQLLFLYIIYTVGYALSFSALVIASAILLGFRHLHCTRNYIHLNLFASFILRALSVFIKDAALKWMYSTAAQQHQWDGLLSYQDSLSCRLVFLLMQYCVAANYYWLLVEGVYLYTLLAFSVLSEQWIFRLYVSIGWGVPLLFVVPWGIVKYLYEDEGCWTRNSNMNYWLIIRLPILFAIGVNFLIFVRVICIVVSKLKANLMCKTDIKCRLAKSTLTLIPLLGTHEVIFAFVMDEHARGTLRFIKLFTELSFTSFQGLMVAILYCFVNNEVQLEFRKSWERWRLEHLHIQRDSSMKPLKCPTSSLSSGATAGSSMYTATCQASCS

On to `CCc1cc(OCCCCNC(=O)CCOCCOCCOCCOCCOCCOCCOCCOCCNC(=O)CCC(=O)N2Cc3ccccc3C#Cc3ccccc32)ccc1-c1ccc(C[C@H](NC(=O)[C@H](CC(=O)O)NC(=O)[C@H](CO)NC(=O)[C@@H](NC(=O)[C@](C)(Cc2ccccc2F)NC(=O)[C@@H](NC(=O)CNC(=O)[C@H](Cc2nn[nH]n2)NC(=O)C(C)(C)C(=O)NCCc2cnc[nH]2)[C@@H](C)O)[C@@H](C)O)C(=O)N[C@@H](CCCc2cc(C)cc(C)c2)C(N)=O)cc1` [LP2, DIBAC-suc-PEG8-P9] ({Malonyl(2,2-Me2,histaminyl)}-[Ala(1H-tetrazol-5-yl)]GT[αMePhe(2-F)]TSD[Bip(2'-Et-4'-O(CH2)4NH2)]([PEG8-Suc-DBCO])[Nva(5-(3,5-Me2Ph))]-NH2), for which the solubility in series [1] is at least 0.06 µM. Moreover, the S/N in series [2] (highest RLU / RLU of untreated wells) amounted to 323.1. In series [2] (payloads and linker-payloads, experiments A-E, M2361 repeated in each, read-out: EC50), the EC50 worked out at 0.0742 nM. In addition, in series [2] (setting [3]), the “Relative Potency (% M2361 EC50)” value worked out at 36.8% and the “Relative Signal:Noise (% M2361)” value is 137.0%.
